“Also recorded” adds a separate entry of the source. Where two headings read alike, the source gives them in different places.
How the values were obtained:
K562/DOX cells [1] = assay: Effect of P-gp activity on apoptosis using verapamil (K562/DOX); format: cell-based, human; conditions: for Fold change in LC50 (+/- verapamil): efflux factor; for effect of P-gp inhibition by verapamil on cytotoxicity: with and without verapamil
Description: Cells were seeded onto 96-well plates at a concentration of 0.5 × 10^6 cells/well in a final volume of 200 μL. […] After a 72-h incubation period with the test compounds, both with and without the inhibitor, apoptotic cells were evaluated using the Annexin V assay to determine the extent of apoptosis.

K562/DOX cells [2] = assay: cells; format: cell-based
Description: (§1) K562 wild-type, K562/DOX, OCI-AML3, HaCaT and healthy B cell cytotoxicity screening. Healthy B-lymphocytes were obtained from healthy donor blood samples using density gradient centrifugation with Histopaque.
(§2) All cells were maintained at 37 °C in atmospheric conditions of 5% CO2. Cytotoxicity screening was carried out in triplicate with these cells at a cell density of 0.5 × 10^6 cells/mL. Cells were treated with test compounds at a range of concentrations to establish LC50 values. Cells were incubated with the compounds for 72 h before being harvested by centrifugation. Subsequently, cells were labeled with Annexin V and 7-AAD (bioscience) in accordance with the manufacturer’s instructions. Following staining with FITC-labeled annexin V and 7-AAD, samples were analyzed using CytExpert software on a CytoFLEX LX flow cytometer (Beckman Coulter) to determine relative levels of cell death in the sample. Prism 10 software was then used to analyze the data to obtain dose–response curves.

K562 wild-type cells [3] = assay: cells; format: cell-based; conditions: for CC50: K562 wild-type, 72 h, Annexin V/7-AAD, read-out: LC50 (the source's name); for apoptosis induction: K562 cells, 72-h exposure
Description: as §1, §2

recombinant ABL1 kinase = recombinant ABL1 kinase (Homo sapiens, UniProt P00519); assay: ABL1 kinase assay (ADP-Glo); format: biochemical
Sequence of recombinant ABL1 kinase (P00519 whole entry): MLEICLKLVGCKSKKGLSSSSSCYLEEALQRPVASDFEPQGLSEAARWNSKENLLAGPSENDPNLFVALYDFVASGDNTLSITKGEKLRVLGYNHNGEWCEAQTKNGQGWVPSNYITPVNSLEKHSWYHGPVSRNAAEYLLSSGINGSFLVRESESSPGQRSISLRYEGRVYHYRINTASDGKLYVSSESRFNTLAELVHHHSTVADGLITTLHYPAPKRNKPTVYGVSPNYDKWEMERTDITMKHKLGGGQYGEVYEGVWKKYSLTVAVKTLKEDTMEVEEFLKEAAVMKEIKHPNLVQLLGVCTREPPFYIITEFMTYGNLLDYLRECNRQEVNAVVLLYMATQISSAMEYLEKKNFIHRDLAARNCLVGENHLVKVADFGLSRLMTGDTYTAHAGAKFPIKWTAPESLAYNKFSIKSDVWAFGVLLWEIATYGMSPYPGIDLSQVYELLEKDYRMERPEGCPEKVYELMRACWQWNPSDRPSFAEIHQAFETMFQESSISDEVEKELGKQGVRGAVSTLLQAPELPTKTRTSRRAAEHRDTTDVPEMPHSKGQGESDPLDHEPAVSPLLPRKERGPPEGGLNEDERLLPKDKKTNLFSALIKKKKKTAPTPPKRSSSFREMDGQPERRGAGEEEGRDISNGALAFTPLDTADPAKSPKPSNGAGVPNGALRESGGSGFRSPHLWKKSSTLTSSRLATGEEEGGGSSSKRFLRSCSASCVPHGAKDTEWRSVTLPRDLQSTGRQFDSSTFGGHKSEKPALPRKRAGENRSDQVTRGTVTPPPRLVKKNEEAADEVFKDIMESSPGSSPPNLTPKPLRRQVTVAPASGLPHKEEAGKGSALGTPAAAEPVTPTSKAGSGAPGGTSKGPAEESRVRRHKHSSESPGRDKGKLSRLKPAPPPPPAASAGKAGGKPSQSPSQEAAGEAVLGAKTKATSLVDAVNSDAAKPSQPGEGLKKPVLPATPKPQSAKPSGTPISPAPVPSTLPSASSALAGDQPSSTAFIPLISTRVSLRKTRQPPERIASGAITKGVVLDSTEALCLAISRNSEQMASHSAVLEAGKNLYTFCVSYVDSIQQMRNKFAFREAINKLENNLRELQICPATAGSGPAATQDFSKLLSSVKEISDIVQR
Description: Kinase inhibition was assessed using luminescent ADP-Glo–based assays. […] No-enzyme and no-compound reactions served as 0% and 100% activity controls, respectively. Luminescence was quantified using a Tecan Spark plate reader, and kinase activity or inhibition was calculated relative to controls.

healthy B-lymphocytes = assay: Cytotoxicity in healthy B-lymphocytes (Annexin V/7-AAD); format: cell-based; conditions: concentrations up to 100 μM
Description: K562 wild-type, K562/DOX, OCI-AML3, HaCaT and healthy B cell cytotoxicity screening. Healthy B-lymphocytes were obtained from healthy donor blood samples using density gradient centrifugation with Histopaque. Informed consent was obtained from all human participants in this study and experiments were performed in accordance with ethical approval granted by the local research ethics committee (17/SW/0263). […]
All cells were maintained at 37 °C in atmospheric conditions of 5% CO2. […] Following staining with FITC-labeled annexin V and 7-AAD, samples were analyzed using CytExpert software on a CytoFLEX LX flow cytometer (Beckman Coulter) to determine relative levels of cell death in the sample. […]

[4] = LC-MS/MS accumulation assay in P-gp-overexpressing K562/DOX cells; format: in vitro ADME, human; conditions: human; K562 wild-type vs K562/DOX
Description: (§3) K562 wild-type and K562/DOX cells were seeded in 6-well plates at a density of 1 × 10^6 cells per well in a final volume of 2 mL and cultured for 24 h at 37 °C in a humidified incubator with 5% CO2. The cells were then treated with 50 μM of the drug and incubated for 2 h. After incubation, the cells were harvested, washed with ice-cold phosphate-buffered saline (PBS), and pelleted. Intracellular drug was extracted by lysing the cells with 400 μL of methanol, aided by sonication. The lysates were centrifuged at 7200 rcf, and the supernatant was collected for analysis by LC-MS/MS. Drug quantification was performed using an external calibration method. Stock solutions of each compound were prepared in methanol and used to generate calibration standards in methanol/DMSO (70:30, %v/v). Experimental samples were diluted in the same solvent mixture prior to analysis.
(§4) Chromatographic separation was performed on a Shimadzu Nexera XR ultrahigh-performance liquid chromatography (UHPLC) system comprising two LC-20AD pumps, a DGC degasser, a SIL-30AC autosampler, a CBM-20A controller, and a column oven. The system was fitted with an Ascentis Express C18 column (5 cm × 2.1 mm, 2.7 μm particle size). Elution was performed with a binary solvent system: eluent A, 0.1% formic acid in water; eluent B, 0.1% formic acid in methanol. The gradient program was as follows: 5% B for 0.5 min, increased to 40% B over 3.5 min, increased to 95% B over 2 min, held at 95% B for 1.5 min, then returned to 5% B at 8 min and held for 3 min for re-equilibration. The mobile phase flow rate was 0.21 mL/min. The column oven was maintained at 40 °C and the autosampler at 10 °C.
(§5) The UHPLC system was coupled to a Shimadzu 8060 triple quadrupole mass spectrometer with an electrospray ionization (ESI) source operating in positive ion mode. […] Multiple reaction monitoring (MRM) transitions (Table S2) were used for quantification with a dwell time of 100 ms per transition. Data were normalized against standards prepared using the initial drug concentration in the lysis solution. Statistical significance of differences in intracellular accumulation between drugs and cell lines was assessed using the nonparametric Mann–Whitney test (n = 6).

K562/DOX cells [5] = assay: as above; format: in vitro ADME, human; conditions: for increase in intracellular concentration: K562/DOX relative to K562 wild-type; for intracellular accumulation (concentration): K562/DOX, 50 μM drug, 2 h; for higher intracellular concentration relative to imatinib: within K562/DOX cells
Description: as §3, §4, §5

CSF-1R = target: T1, CSF-1R (Homo sapiens, UniProt P07333); assay: CSF-1R Chemi-Verse kinase assay; format: biochemical; conditions: compared with imatinib
T1 construct: purchased Cambridge Biosciences (Chemi-Verse kinase assays)
T1 sequence (P07333 20-972): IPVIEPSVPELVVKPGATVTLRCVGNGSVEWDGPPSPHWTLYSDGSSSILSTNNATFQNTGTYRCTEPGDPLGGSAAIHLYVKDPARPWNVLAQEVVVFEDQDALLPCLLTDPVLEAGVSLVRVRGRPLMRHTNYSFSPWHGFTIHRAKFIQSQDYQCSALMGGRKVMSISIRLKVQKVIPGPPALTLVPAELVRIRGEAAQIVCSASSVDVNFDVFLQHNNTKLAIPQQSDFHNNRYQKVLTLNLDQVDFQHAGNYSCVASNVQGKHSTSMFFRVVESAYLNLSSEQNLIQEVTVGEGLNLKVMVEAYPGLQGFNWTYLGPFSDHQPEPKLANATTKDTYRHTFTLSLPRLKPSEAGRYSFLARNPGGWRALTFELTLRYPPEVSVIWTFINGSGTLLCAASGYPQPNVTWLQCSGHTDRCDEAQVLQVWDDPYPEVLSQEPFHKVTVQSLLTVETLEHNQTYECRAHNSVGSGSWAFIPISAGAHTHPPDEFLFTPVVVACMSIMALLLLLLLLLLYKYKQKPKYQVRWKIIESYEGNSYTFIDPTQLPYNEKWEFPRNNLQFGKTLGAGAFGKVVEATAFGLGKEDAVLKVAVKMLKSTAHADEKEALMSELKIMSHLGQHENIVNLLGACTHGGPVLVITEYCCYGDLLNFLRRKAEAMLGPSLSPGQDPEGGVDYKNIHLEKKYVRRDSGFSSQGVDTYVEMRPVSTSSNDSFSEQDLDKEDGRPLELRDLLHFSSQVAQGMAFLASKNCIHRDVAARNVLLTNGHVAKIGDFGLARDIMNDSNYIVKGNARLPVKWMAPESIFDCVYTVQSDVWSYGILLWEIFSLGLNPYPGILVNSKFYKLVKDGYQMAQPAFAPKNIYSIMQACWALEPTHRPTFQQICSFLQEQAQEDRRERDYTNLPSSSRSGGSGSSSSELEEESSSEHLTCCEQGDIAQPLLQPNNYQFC
Description: (§6) Reactions were set up under the supplier’s recommended conditions, with recombinant kinases (5 ng/μL final), peptide substrates, and ATP in kinase assay buffer. Test inhibitors or vehicle were added, and reactions were incubated at 30 °C for 45 min. ADP formation was quantified with ADP-Glo detection, and percent inhibition was determined relative to DMSO controls.

K562 wild-type cells [6] = assay: LC-MS/MS accumulation assay in K562 wild-type cells; format: in vitro ADME, human; conditions: 50 μM drug, 2 h
Description: as §3, with “analysis. […]” for “analysis.”
as §5, with “Data were normalized against standards prepared using the initial drug concentration in the lysis solution.” left out

PDGFRα (D842Y) = target: T2, PDGFRα (D842Y) (Homo sapiens, UniProt P16234, D842Y); assay: PDGFRα (D842Y) Chemi-Verse kinase assay; format: biochemical; conditions: compared with imatinib
T2 construct: purchased Cambridge Biosciences (Chemi-Verse kinase assays)
T2 sequence (P16234 24-1089 D842Y): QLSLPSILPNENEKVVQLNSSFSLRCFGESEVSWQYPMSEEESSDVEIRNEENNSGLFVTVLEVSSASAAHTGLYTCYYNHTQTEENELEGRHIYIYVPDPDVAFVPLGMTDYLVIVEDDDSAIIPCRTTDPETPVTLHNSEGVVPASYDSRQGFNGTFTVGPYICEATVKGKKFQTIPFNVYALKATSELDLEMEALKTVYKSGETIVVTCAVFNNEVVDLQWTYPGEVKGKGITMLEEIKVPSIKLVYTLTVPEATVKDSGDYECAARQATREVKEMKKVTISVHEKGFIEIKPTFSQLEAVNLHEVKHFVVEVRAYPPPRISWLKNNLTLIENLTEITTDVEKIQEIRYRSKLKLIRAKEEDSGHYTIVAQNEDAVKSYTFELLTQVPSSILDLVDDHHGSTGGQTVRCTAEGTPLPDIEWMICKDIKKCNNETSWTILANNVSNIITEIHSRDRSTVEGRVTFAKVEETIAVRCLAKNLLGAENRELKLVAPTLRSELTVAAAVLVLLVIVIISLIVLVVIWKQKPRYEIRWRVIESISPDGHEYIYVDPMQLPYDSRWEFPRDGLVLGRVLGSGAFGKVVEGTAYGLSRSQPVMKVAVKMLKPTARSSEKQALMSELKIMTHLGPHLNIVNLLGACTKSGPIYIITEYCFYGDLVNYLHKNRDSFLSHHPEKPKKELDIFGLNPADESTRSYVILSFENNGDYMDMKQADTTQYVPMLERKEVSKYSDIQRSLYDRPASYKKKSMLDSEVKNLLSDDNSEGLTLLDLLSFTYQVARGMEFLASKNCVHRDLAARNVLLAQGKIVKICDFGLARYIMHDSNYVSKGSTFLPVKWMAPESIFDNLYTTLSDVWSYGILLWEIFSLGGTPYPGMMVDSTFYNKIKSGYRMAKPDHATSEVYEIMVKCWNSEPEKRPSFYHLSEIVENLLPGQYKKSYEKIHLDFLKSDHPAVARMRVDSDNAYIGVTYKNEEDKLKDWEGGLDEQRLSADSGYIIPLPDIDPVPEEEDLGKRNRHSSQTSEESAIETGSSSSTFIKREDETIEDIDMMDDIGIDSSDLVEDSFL
Description: as §6

HaCaT cells = format: cell-based; conditions: ratio of IC50 in HaCaT cells to LC50 in K562 wild-type
Description: HaCaT cells were seeded in a 96-well plate in DMEM at a density of 3 × 10^3 cells/well and incubated for 24 h at 37 °C in a humidified incubator with 5% CO2. The cells were then treated with a series of drug concentrations (0.1–100 μM) and incubated for a further 72 h at 37 °C. After treatment, the media in each well, including control wells, was replaced with MTT reagent (0.1 mg/well in media) and incubated for 4 h at 37 °C. Following incubation, the MTT reagent was carefully removed, and 200 μL of DMSO was added to each well to solubilize the formazan crystals. The plate was shaken for 10 min, and the optical density (OD) was measured at 570 nm using a microplate reader.

[7] = Homo sapiens, K562, 72 h, read-out: LC50, K562/DOX, 72 h, Annexin V/7-AAD

| inhibition at 10 µM (recombinant ABL1 kinase; 10 μM, 40 min incubation) | efflux ratio at 2 h, 50 μM [4] | increase in intracellular concentration (K562/DOX cells [5]) | intracellular accumulation (concentration) (K562/DOX cells [5]) | higher intracellular concentration relative to imatinib (K562/DOX cells [5]) | inhibitory activity against CSF-1R (CSF-1R) | intracellular accumulation (concentration) (K562 wild-type cells [6]) | inhibitory activity against PDGFRα (D842Y) (PDGFRα (D842Y)) | ABL1 inhibition (recombinant ABL1 kinase) | Molecule | Fold change in LC50 (+/- verapamil) (K562/DOX cells [1]) | effect of P-gp inhibition by verapamil on cytotoxicity (K562/DOX cells [1]) | CC50 (K562/DOX cells [2]; [7]) | CC50 (K562 wild-type cells [3]; Homo sapiens, K562, 72 h) | apoptosis induction (K562 wild-type cells [3]) | CC50 (K562/DOX cells [2]; human, 72 h) | CC50 (K562/DOX cells [2]; K562/DOX, 72 h, Annexin V/7-AAD, read-out: LC50 (the source's name)) | CC50 (K562 wild-type cells [3]) | %Kinase inhibition (recombinant ABL1 kinase; 10 μM, 40 min incubation) | toxicity in nonmalignant B-lymphocytes (healthy B-lymphocytes) | Toxicity Index (IC50 HaCaT/LC50 K562) (HaCaT cells) |
| --- | --- | --- | --- | --- | --- | --- | --- | --- | --- | --- | --- | --- | --- | --- | --- | --- | --- | --- | --- | --- |
| 47.1% | – | – | – | – | – | – | – | – | Cc1ccc(NC(=O)c2ccc(CN3CCC(n4ccnc4)CC3)cc2)cc1Nc1nccc(-c2cccnc2)n1 [Compound 13, 4-((4-(1H-Imidazol-1-yl)piperidin-1-yl)methyl)-N-(4-methyl-3-((4-(pyridin-3-yl)pyrimidin-2-yl)amino)phenyl)benzamide] | 1.9 | minimal changes; also recorded: reversal of resistance was not significant | 32.5 ± 14.5 µM | 18.2 ± 1.9 µM | induced apoptosis in a dose-dependent manner | – | – | – | – | – | – |
| 39.6% | – | – | – | – | – | – | – | – | Cc1ccc(NC(=O)c2ccc(CN3CCC(c4ccncc4)CC3)cc2)cc1Nc1nccc(-c2cccnc2)n1 [Compound 10, 4-Methyl-3-((4-(pyridin-3-yl)pyrimidin-2-yl)amino)phenyl-4-((4-(pyridin-4-yl)piperidin-1-yl)methyl)benzamide] | – | – | 37.5 ± 10.1 µM | > 50 µM | inactive | 37.5 µM | – | – | – | – | – |
| – | – | – | – | – | – | – | – | – | 4-Methyl-3-((4-(pyridin-3-yl)pyrimidin-2-yl)amino)phenyl-4-((4-(pyrimidin-2-yl)piperidin-1-yl)methyl)benzamide [Compound 11] | – | – | – | – | induced apoptosis in a dose-dependent manner | – | > 50 µM | 24.2 ± 12.2 µM | 26.55% | – | – |
| 36.1% | – | – | – | – | – | – | – | – | Cc1ccc(NC(=O)c2ccc(CN3CCC(n4cnnc4)CC3)cc2)cc1Nc1nccc(-c2cccnc2)n1 [Compound 14, 4-((4-(4H-1,2,4-Triazol-4-yl)piperidin-1-yl)methyl)-N-(4-methyl-3-((4-(pyridin-3-yl)pyrimidin-2-yl)amino)phenyl)benzamide] | – | – | > 50 µM | > 50 µM | inactive | – | – | – | – | – | – |
| 40% | 0.98 | 2.5% | 14.49 µg/mL | approximately 2.6 fold | broadly comparable to imatinib | 14.14 µg/mL | broadly comparable to imatinib | moderate inhibition | Cc1ccc(NC(=O)c2ccc(CN3CCC(c4ccc(N)cc4)CC3)cc2)cc1Nc1nccc(-c2cccnc2)n1 [Compound 8, 4-((4-(4-Aminophenyl)piperidin-1-yl)methyl)-N-(4-methyl-3-((4-(23yridine-3-yl)pyrimidin-2-yl)amino)phenyl)benzamide] | 1.3 | minimal changes; also recorded: reversal of resistance was not significant | 5.29 µM | 2.29 µM | induced apoptosis in a dose-dependent manner | – | – | – | – | No significant toxicity; also recorded: no significant cytotoxicity | 3.4 |
| 37.7% | – | – | – | – | – | – | – | – | Cc1ccc(NC(=O)c2ccc(CN3CCC(c4ccccc4)CC3)cc2)cc1Nc1nccc(-c2cccnc2)n1 [Compound 7] | – | – | > 50 µM | > 50 µM | inactive | – | – | – | – | – | – |
| 32.2% | 0.87 | 14.4% | 26.73 µg/mL | ~4.8 fold | broadly comparable to imatinib | 23.36 µg/mL | broadly comparable to imatinib | relatively weak inhibition | Cc1ccc(NC(=O)c2ccc(CN3CCC(c4ccccn4)CC3)cc2)cc1Nc1nccc(-c2cccnc2)n1 [Compound 9] | 4.1 | reversal of resistance was not significant | 20.3 ± 10.3 µM | 21.8 ± 11 µM | induced apoptosis in a dose-dependent manner | 20.3 µM | – | 21.8 µM | – | – | – |
| 47.4% | – | – | – | – | – | – | – | – | Cc1ccc(NC(=O)c2ccc(CN3CCC(n4cccc4)CC3)cc2)cc1Nc1nccc(-c2cccnc2)n1 [Compound 12, 4-((4-(1H-Pyrrol-1-yl)piperidin-1-yl)methyl)-N-(4-methyl-3-((4-(pyridin-3-yl)pyrimidin-2-yl)amino)phenyl)benzamide] | – | – | – | > 50 µM | inactive | – | – | – | – | – | – |

Source: article PMC12621183 (Journal of Medicinal Chemistry, 2025)
